Source: the supplement of paper PMC10307832

Key:
Assay in all cases: relative viability (nuclei count vs DMSO), 5 days (fraction); higher = more cells survive
[1] = compound: CN1C=C(C2=CC=CC=C21)/C=C\3/C4=C(C=CC=N4)NC3=O + Cc1cc(Nc2cc(N3CCN(C)CC3)nc(Sc3ccc(NC(=O)C4CC4)cc3)n2)n[nH]1 [Tozasertib] (partner 0.1 µM)
Summary of the method: (§1)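 Lung cancer cell lines were seeded in 1536-well plates and dosed by pin tool the next day, with either a single drug or a fixed anchor-drug dose combined with five library-drug doses (not always all listed) spaced in √10 steps. Five days later, one step fixed the cells and stained their nuclei (final 0.05% Triton X-100, 1% formaldehyde, 1 ug/ml Hoechst), and nuclei were counted on 4× images. Relative viability is the nuclei count in treated wells divided by the count in vehicle wells, and each value is the median of duplicate plates.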

Trametinib + Navitoclax = compound: CC(=O)Nc1cccc(-n2c(=O)n(C3CC3)c(=O)c3c(Nc4ccc(I)cc4F)n(C)c(=O)c(C)c32)c1 [Trametinib] + CC1(C)CCC(c2ccc(Cl)cc2)=C(CN2CCN(c3ccc(C(=O)NS(=O)(=O)c4ccc(N[C@H](CCN5CCOCC5)CSc5ccccc5)c(S(=O)(=O)C(F)(F)F)c4)cc3)CC2)C1 [Navitoclax] (partner 0.5 µM)
Summary of the method: as §1

Trametinib + Decitabine = compound: CC(=O)Nc1cccc(-n2c(=O)n(C3CC3)c(=O)c3c(Nc4ccc(I)cc4F)n(C)c(=O)c(C)c32)c1 [Trametinib] + Nc1ncn([C@H]2C[C@H](O)[C@@H](CO)O2)c(=O)n1 [Decitabine] (partner 2 µM)
Summary of the method: as §1

Trametinib + Luminespib = compound: CC(=O)Nc1cccc(-n2c(=O)n(C3CC3)c(=O)c3c(Nc4ccc(I)cc4F)n(C)c(=O)c(C)c32)c1 [Trametinib] + CCNC(=O)c1noc(-c2cc(C(C)C)c(O)cc2O)c1-c1ccc(CN2CCOCC2)cc1 [Luminespib] (partner 0.01 µM)
Summary of the method: as §1

Cell Line	relative viability ([1]; first compound 0.02 µM)	relative viability ([1]; first compound 0.06325 µM)	relative viability ([1]; first compound 0.2 µM)	relative viability ([1]; first compound 0.6325 µM)	relative viability ([1]; first compound 2 µM)	relative viability (Trametinib + Navitoclax; first compound 0.0025 µM)	relative viability (Trametinib + Navitoclax; first compound 0.007906 µM)	relative viability (Trametinib + Navitoclax; first compound 0.07906 µM)	relative viability (Trametinib + Navitoclax; first compound 0.25 µM)	relative viability (Trametinib + Decitabine; first compound 0.0025 µM)	relative viability (Trametinib + Decitabine; first compound 0.007906 µM)	relative viability (Trametinib + Decitabine; first compound 0.025 µM)	relative viability (Trametinib + Decitabine; first compound 0.07906 µM)	relative viability (Trametinib + Decitabine; first compound 0.25 µM)	relative viability (Trametinib + Luminespib; first compound 0.0025 µM)	relative viability (Trametinib + Luminespib; first compound 0.007906 µM)	relative viability (Trametinib + Luminespib; first compound 0.025 µM)	relative viability (Trametinib + Luminespib; first compound 0.07906 µM)	relative viability (Trametinib + Luminespib; first compound 0.25 µM)	relative viability (Trametinib + Navitoclax; first compound 0.025 µM)
BEN	0.475	0.445	0.443	0.634	0.761	0.0591	0.054	0.0541	0.179	0.768	0.663	0.5	0.506	0.654	0.269	0.374	0.154	0.379	0.377	–
COR-L23	0.21	0.187	0.222	0.162	0.151	0.977	1.02	0.694	0.475	0.428	0.435	0.329	0.372	0.293	0.638	0.462	0.306	0.248	0.236	1.04
COR-L 105	0.311	0.311	0.378	0.364	0.36	0.594	0.517	0.387	0.324	0.64	0.609	0.486	0.375	0.36	0.685	0.587	0.415	0.271	0.344	0.417
ChaGo-K-1	0.194	0.221	0.212	0.214	0.201	1.07	0.803	0.508	0.556	0.52	0.494	0.576	0.467	0.497	0.729	0.515	0.511	0.646	0.464	1.08
EKVX	0.297	0.422	0.402	0.355	0.38	0.728	0.627	0.376	0.371	0.36	0.351	0.326	0.372	0.222	0.864	0.767	0.331	0.446	0.351	0.37
EMC-BAC-2	0.315	0.295	0.301	0.281	0.374	1.07	0.956	0.891	0.817	0.974	0.95	0.827	–	0.5	1.18	1.04	1.04	0.95	0.684	1.06
EPLC-272H	0.193	0.276	0.244	–	0.283	0.962	0.914	0.709	0.359	0.357	0.324	0.326	0.336	0.293	0.222	0.22	0.251	0.129	0.117	0.455
H3255	0.739	0.624	0.847	0.638	0.866	0.468	0.316	0.161	0.18	0.552	0.572	0.487	0.518	0.378	1.07	0.928	0.581	0.601	0.236	0.251
HARA	0.0897	0.112	–	0.0723	0.0941	0.984	1.1	1.06	0.976	0.606	0.469	0.474	0.421	0.422	0.75	0.534	0.694	0.234	0.13	1.14
HCC-15	0.322	0.406	0.493	0.346	0.531	0.505	0.336	0.247	0.189	0.519	0.464	0.501	0.248	0.234	0.313	0.186	0.157	0.165	0.192	0.243
HCC-44	0.918	0.887	–	1.13	0.944	1.03	0.751	0.805	0.446	0.894	0.924	1.05	0.943	0.848	1.03	0.907	0.931	0.553	0.193	0.865
HCC-827	0.378	0.405	–	0.53	0.395	1.06	0.971	0.946	0.676	0.365	0.289	0.315	0.274	0.236	0.63	0.24	0.219	0.228	0.153	1.03
HOP-62	0.31	0.359	0.412	0.406	0.422	1.05	1.03	0.617	0.198	0.199	0.229	0.252	0.235	0.227	0.933	0.754	0.533	0.361	0.173	0.741
LC-2-ad	0.43	0.435	0.482	0.453	0.492	0.35	0.306	0.285	0.173	0.803	0.683	0.782	0.689	0.7	0.975	0.951	1	0.71	0.447	0.34
LCLC-97TM1	0.132	0.196	0.181	0.332	0.252	0.427	0.451	0.207	0.122	0.275	0.287	0.206	0.203	0.169	0.802	0.493	0.291	0.226	0.234	0.216
LK-2	–	–	–	0.164	0.152	0.745	0.897	0.946	0.368	0.309	0.259	0.181	0.18	0.147	0.159	0.183	0.223	0.161	0.191	0.767

Cell Line	relative viability ([1]; first compound 0.02 µM)	relative viability ([1]; first compound 0.06325 µM)	relative viability ([1]; first compound 0.2 µM)	relative viability ([1]; first compound 0.6325 µM)	relative viability ([1]; first compound 2 µM)	relative viability (Trametinib + Navitoclax; first compound 0.0025 µM)	relative viability (Trametinib + Navitoclax; first compound 0.007906 µM)	relative viability (Trametinib + Navitoclax; first compound 0.07906 µM)	relative viability (Trametinib + Navitoclax; first compound 0.25 µM)	relative viability (Trametinib + Decitabine; first compound 0.0025 µM)	relative viability (Trametinib + Decitabine; first compound 0.007906 µM)	relative viability (Trametinib + Decitabine; first compound 0.025 µM)	relative viability (Trametinib + Decitabine; first compound 0.07906 µM)	relative viability (Trametinib + Decitabine; first compound 0.25 µM)	relative viability (Trametinib + Luminespib; first compound 0.0025 µM)	relative viability (Trametinib + Luminespib; first compound 0.007906 µM)	relative viability (Trametinib + Luminespib; first compound 0.025 µM)	relative viability (Trametinib + Luminespib; first compound 0.07906 µM)	relative viability (Trametinib + Luminespib; first compound 0.25 µM)	relative viability (Trametinib + Navitoclax; first compound 0.025 µM)
LOU-NH91	0.567	0.661	0.621	0.688	0.657	0.657	0.528	0.448	0.32	0.804	0.776	0.734	0.71	0.544	0.348	0.365	0.278	0.305	0.279	0.57
LU99A	0.252	0.264	0.278	0.257	0.256	0.855	0.779	0.363	0.235	0.796	0.813	0.59	0.665	0.511	0.297	0.241	0.187	0.189	0.151	0.465
LXF-289	0.14	0.195	0.217	0.213	0.182	0.872	0.755	0.63	0.538	0.399	0.408	0.385	0.319	0.391	0.616	0.642	0.507	0.491	0.351	0.721
NCI-H23	0.48	0.365	0.304	0.328	0.227	0.624	0.58	0.344	0.247	0.291	0.297	0.281	0.269	0.258	0.234	0.185	0.17	0.213	0.221	0.347
NCI-H322M	0.46	0.5	0.485	0.507	0.639	1.15	0.97	0.827	0.687	0.691	0.681	0.631	0.585	0.566	0.749	0.634	0.471	0.473	0.404	1.01
NCI-H441	0.67	0.607	0.651	0.572	0.567	0.761	0.633	0.312	0.278	0.272	0.248	0.259	0.25	0.168	0.331	0.264	0.362	0.285	0.327	0.572
NCI-H460	0.458	0.403	0.448	0.363	0.0797	1.08	0.981	0.277	0.0346	0.481	0.389	0.361	0.305	0.112	0.0314	0.0296	0.0277	0.0263	0.0269	0.727
NCI-H520	0.396	0.47	0.501	0.436	0.415	1.11	1.15	1.01	0.77	0.445	0.504	0.535	0.502	0.473	0.252	0.2	0.259	0.253	0.218	1.04
NCI-H596	0.981	0.878	0.745	0.7	0.918	0.893	0.624	0.498	0.363	0.967	0.96	0.952	0.968	0.739	0.901	0.775	0.65	0.727	0.523	0.525
NCI-H647	0.327	0.345	0.206	0.321	0.215	1.01	1.07	0.55	0.267	0.39	0.349	0.377	0.344	0.19	0.183	0.12	0.324	0.209	0.102	0.834
NCI-H727	0.554	0.447	0.59	0.636	0.633	0.158	0.117	0.0926	0.0927	0.818	0.619	0.541	0.431	0.453	0.297	0.314	0.291	0.244	0.225	0.0956
NCI-H838	0.264	0.223	0.259	0.294	0.257	1.05	0.973	1.01	0.718	0.466	0.416	0.457	0.448	0.403	0.289	0.291	0.247	0.204	0.208	–
NCI-H1355	0.52	0.599	0.523	0.412	0.368	0.764	0.832	0.563	0.414	0.346	0.353	0.309	0.347	0.34	0.486	0.605	0.323	0.35	0.3	0.51
NCI-H1395	0.703	0.72	0.681	0.721	0.821	1.17	1.01	1.14	0.685	0.705	0.597	0.736	0.693	0.555	0.616	0.703	0.691	0.775	0.403	1.27
NCI-H1437	0.39	0.427	0.417	0.438	0.463	1.15	0.724	0.377	0.312	0.574	0.471	0.557	0.394	0.431	1.12	0.923	0.709	0.627	0.602	0.537
NCI-H1650	0.41	0.366	0.454	0.334	0.35	0.94	0.857	0.473	0.35	0.39	0.467	0.369	0.399	0.206	0.209	0.2	0.176	0.174	0.211	0.816
